Source: ChEMBL document CHEMBL3588818 (Eur J Med Chem, 2015)

Tests used:
[1] = Displacement of [3H]DTG from sigma2 receptor in Sprague-Dawley rat liver membranes incubated for 2 hrs in presence of dextrallorphan by liquid scintillation counting based competitive radioligand binding assay; conditions: read-out: Ki(app)
[2] = test system: PC-12; test: Selectivity index, ratio of Ki for sigma2 receptor in Sprague-Dawley rat liver membranes to Ki for rat VAChT expressed in PC12 cell membranes; type: cell-based
[3] = molecular target: Sigma non-opioid intracellular receptor 1 (Rattus norvegicus, UniProt Q9R0C9); test: Displacement of […] from sigma1 receptor in Sprague-Dawley rat cortical membranes incubated for 2 hrs by liquid scintillation counting based competitive radioligand binding assay; conditions: read-out: Ki(app)
[4] = molecular target: T1, Vesicular acetylcholine transporter (Rattus norvegicus, UniProt Q62666); test: Displacement of (-)-[3H]vesamicol from rat VAChT expressed in PC12 cell membranes incubated for 2 hrs by liquid scintillation counting based competitive radioligand binding assay; set-up: species or system PC-12; conditions: read-out: Ki(app)
T1 sequence (Q62666 whole entry): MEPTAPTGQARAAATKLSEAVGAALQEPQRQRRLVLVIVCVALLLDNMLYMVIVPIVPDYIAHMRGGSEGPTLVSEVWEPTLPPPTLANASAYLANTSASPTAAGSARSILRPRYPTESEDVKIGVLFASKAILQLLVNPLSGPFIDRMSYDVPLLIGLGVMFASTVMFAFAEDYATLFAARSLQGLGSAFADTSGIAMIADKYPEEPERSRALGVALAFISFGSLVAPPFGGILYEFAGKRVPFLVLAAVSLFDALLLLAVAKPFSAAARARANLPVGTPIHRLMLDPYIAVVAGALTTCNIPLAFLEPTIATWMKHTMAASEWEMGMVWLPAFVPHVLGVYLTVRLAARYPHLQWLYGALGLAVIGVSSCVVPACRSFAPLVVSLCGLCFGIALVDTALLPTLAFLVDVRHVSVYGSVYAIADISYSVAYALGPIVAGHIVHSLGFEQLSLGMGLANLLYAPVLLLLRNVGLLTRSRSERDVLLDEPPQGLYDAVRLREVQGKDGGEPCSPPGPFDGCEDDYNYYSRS

[5] = test system: PC-12; test: Selectivity index, ratio of Ki for sigma1 receptor in Sprague-Dawley rat cortical membranes to Ki for rat VAChT expressed in PC12 cell membranes; type: cell-based

Chain of Sigma non-opioid intracellular receptor 1 (Q9R0C9 whole entry): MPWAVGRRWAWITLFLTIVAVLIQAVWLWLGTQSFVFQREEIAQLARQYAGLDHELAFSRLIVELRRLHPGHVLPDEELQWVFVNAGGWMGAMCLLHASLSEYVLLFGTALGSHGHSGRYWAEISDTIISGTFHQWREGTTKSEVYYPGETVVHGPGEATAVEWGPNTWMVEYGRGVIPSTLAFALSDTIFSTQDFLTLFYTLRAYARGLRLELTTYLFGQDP

## CCN(CCCc1ccccc1)[C@@H]1C[C@H](OCc2ccc(F)cc2)CC[C@H]1O (racemic)
[1]
  Ki: 109 nM
[2]
  Ratio Ki: < 0.1
[3]
  Ki: 10.5 nM
[4]
  Ki: 1610 nM

## O[C@@H]1CC[C@@H](OCc2ccc(F)cc2)C[C@H]1N1CCc2ccccc2C1 (racemic)
[1]
  Ki: 45.9 nM
[2]
  Ratio Ki: < 0.1
[3]
  Ki: 59 nM
[5]
  Ratio Ki: < 0.1
[4]
  Ki: 4670 nM

## O[C@@H]1CC[C@@H](OCc2ccc(F)cc2)C[C@H]1N1CCC(Cc2ccccc2)CC1 (racemic)
[1]
  Ki: 61.8 nM
[2]
  Ratio Ki: 0.6
[3]
  Ki: 25.2 nM
[5]
  Ratio Ki: 0.2
[4]
  Ki: 110 nM

## O=C(Nc1cccc2c1C[C@@H](O)[C@H](N1CCC(c3ccccc3)CC1)C2)c1ccc(F)cc1 (racemic)
[1]
  Ki: 1380 nM
[2]
  Ratio Ki: 2.2
[3]
  Ki: 626 nM
[5]
  Ratio Ki: 3.3
[4]
  Ki: 188 nM

## O[C@@H]1CCCC[C@H]1N1CCC(Cc2ccccc2)CC1 (racemic)
[1]
  Ki: 108 nM
[2]
  Ratio Ki: 0.2
[3]
  Ki: 20.1 nM
[5]
  Ratio Ki: < 0.1
[4]
  Ki: 647 nM

## O=C(Nc1cccc2c1C[C@@H](N1CCC(Cc3ccccc3)CC1)[C@H](O)C2)c1ccc(F)cc1 (racemic)
[1]
  Ki: 2080 nM
[2]
  Ratio Ki: 3.9
[3]
  Ki: 1770 nM
[5]
  Ratio Ki: 3.4
[4]
  Ki: 527 nM

## O=C(c1ccc(F)cc1)C1CCN([C@@H]2CC[C@H](OCc3ccc(F)cc3)C[C@H]2O)CC1 (racemic)
[1]
  Ki: 2000 nM
[2]
  Ratio Ki: 0.3
[3]
  Ki: 65.4 nM
[5]
  Ratio Ki: < 0.1
[4]
  Ki: 5840 nM

## O[C@@H]1CCCC[C@H]1N1CCC(N2CCCCC2)CC1 (racemic)
[1]
  Ki: 4710 nM
[3]
  Ki: > 1000 nM
[4]
  Ki: 5110 nM

## O[C@@H]1C[C@@H](OCc2ccc(F)cc2)CC[C@H]1N1CC=C(c2ccccc2)CC1 (racemic)
[1]
  Ki: 55.5 nM
[2]
  Ratio Ki: < 0.1
[3]
  Ki: 15.9 nM
[5]
  Ratio Ki: < 0.1
[4]
  Ki: 2830 nM

## O[C@@H]1C[C@@H](OCc2ccc(F)cc2)CC[C@H]1N1CCC(N2CCCCC2)CC1 (racemic)
[1]
  Ki: 374 nM
[3]
  Ki: 300 nM
[4]
  Ki: > 10000 nM

## O=C(c1ccc(F)cc1)C1CCN([C@@H]2CCCC[C@H]2O)CC1 (racemic)
[1]
  Ki: 730 nM
[2]
  Ratio Ki: 0.2
[3]
  Ki: 60.9 nM
[5]
  Ratio Ki: < 0.1
[4]
  Ki: 3240 nM

## Nc1cccc2c1C[C@@H](O)[C@H](N1CCC(c3ccccc3)CC1)C2 (racemic)
[1]
  Ki: 726 nM
[2]
  Ratio Ki: 2.1
[3]
  Ki: 55.3 nM
[5]
  Ratio Ki: 0.2
[4]
  Ki: 339 nM

## O[C@@H]1C[C@@H](OCCCF)CC[C@H]1N1CCC(c2ccccc2)CC1 (racemic)
[1]
  Ki: 717 nM
[2]
  Ratio Ki: 12
[3]
  Ki: 97.6 nM
[5]
  Ratio Ki: 1.6
[4]
  Ki: 59.6 nM

## O[C@@H]1CCCC[C@H]1N1CC=C(c2ccccc2)CC1 (racemic)
[1]
  Ki: 158 nM
[2]
  Ratio Ki: 0.4
[3]
  Ki: 9.7 nM
[5]
  Ratio Ki: < 0.1
[4]
  Ki: 439 nM

## O[C@@H]1CC[C@@H](OCc2ccc(F)cc2)C[C@H]1N1CCC(c2ccccc2)CC1 (racemic)
[1]
  Ki: 53.1 nM
[2]
  Ratio Ki: 2.1
[3]
  Ki: 16.6 nM
[5]
  Ratio Ki: 0.7
[4]
  Ki: 25.1 nM

## O[C@@H]1Cc2ccccc2C[C@H]1N1CCN(c2ccccc2)CC1 (racemic)
[1]
  Ki: 1280 nM
[2]
  Ratio Ki: 22.7
[3]
  Ki: 466 nM
[5]
  Ratio Ki: 8.3
[4]
  Ki: 56 nM

## O[C@@H]1Cc2ccccc2C[C@H]1N1CCC(c2ccccc2)CC1 (racemic) [BENZOVESAMICOL]
[1]
  Ki: 96.4 nM
[3]
  Ki: 26.1 nM

## O[C@@H]1C[C@@H](OCc2ccc(F)cc2)CC[C@H]1N1CCc2ccccc2C1 (racemic)
[1]
  Ki: 45.6 nM
[3]
  Ki: 23.1 nM
[4]
  Ki: > 10000 nM

## O[C@@H]1CC[C@@H](OCc2ccc(F)cc2)C[C@H]1N1CCC(N2CCCCC2)CC1 (racemic)
[1]
  Ki: 543 nM
[2]
  Ratio Ki: 0.1
[3]
  Ki: 553 nM
[5]
  Ratio Ki: 0.1
[4]
  Ki: 4790 nM

## O[C@@H]1C[C@@H](OCc2ccc(F)cc2)CC[C@H]1N1CCC(c2ccccc2)(c2ccccc2)CC1 (racemic)
[1]
  Ki: 5540 nM
[2]
  Ratio Ki: 2
[3]
  Ki: 736 nM
[5]
  Ratio Ki: 0.3
[4]
  Ki: 2730 nM

## CCN(CCCc1ccccc1)[C@@H]1CCCC[C@H]1O (racemic)
[1]
  Ki: 652 nM
[3]
  Ki: 115 nM
[4]
  Ki: > 10000 nM

## O[C@@H]1CCCC[C@H]1N1CCN(c2ccccc2)CC1 (racemic)
[1]
  Ki: 695 nM
[2]
  Ratio Ki: 0.8
[3]
  Ki: 83.9 nM
[5]
  Ratio Ki: 0.1
[4]
  Ki: 838 nM

## O[C@@H]1CC[C@@H](OCc2ccc(F)cc2)C[C@H]1N1CCN(c2ccccc2)CC1 (racemic)
[1]
  Ki: 167 nM
[2]
  Ratio Ki: 0.24
[3]
  Ki: 103 nM
[5]
  Ratio Ki: 0.2
[4]
  Ki: 697 nM

## O[C@@H]1Cc2ccccc2C[C@H]1N1CCC(N2CCCCC2)CC1 (racemic)
[1]
  Ki: 161 nM
[2]
  Ratio Ki: 1.4
[3]
  Ki: 248 nM
[5]
  Ratio Ki: 2.2
[4]
  Ki: 112 nM

## O[C@@H]1C[C@@H](OCc2ccc(F)cc2)CC[C@H]1N1CCN(c2ccccc2)CC1 (racemic)
[1]
  Ki: 1040 nM
[2]
  Ratio Ki: 0.2
[3]
  Ki: 189 nM
[5]
  Ratio Ki: < 0.1
[4]
  Ki: 6190 nM

## O[C@@H]1CC[C@@H](OCc2ccc(F)cc2)C[C@H]1N1CC=C(c2ccccc2)CC1 (racemic)
[1]
  Ki: 46.9 nM
[2]
  Ratio Ki: 0.2
[3]
  Ki: 29.9 nM
[5]
  Ratio Ki: < 0.1
[4]
  Ki: 310 nM

## CCN(CCCc1ccccc1)[C@@H]1CC[C@H](OCc2ccc(F)cc2)C[C@H]1O (racemic)
[1]
  Ki: 280 nM
[2]
  Ratio Ki: 0.1
[3]
  Ki: 19.7 nM
[5]
  Ratio Ki: < 0.1
[4]
  Ki: 1930 nM

## O[C@@H]1CCCC[C@H]1N1CCc2ccccc2C1 (racemic)
[1]
  Ki: 809 nM
[3]
  Ki: 54.3 nM

## O[C@@H]1CC[C@@H](OCCCF)C[C@H]1N1CCC(c2ccccc2)CC1 (racemic)
[1]
  Ki: 88.2 nM
[2]
  Ratio Ki: 1.8
[3]
  Ki: 25.9 nM
[5]
  Ratio Ki: 0.5
[4]
  Ki: 47.8 nM

## O[C@@H]1CC[C@@H](OCc2ccc(F)cc2)C[C@H]1N1CCC(c2ccccc2)(c2ccccc2)CC1 (racemic)
[1]
  Ki: 2360 nM
[2]
  Ratio Ki: 3.9
[3]
  Ki: 456 nM
[5]
  Ratio Ki: 0.8
[4]
  Ki: 603 nM

## O[C@@H]1Cc2ccccc2C[C@H]1N1CCC(O)(c2ccccc2)CC1 (racemic)
[1]
  Ki: 549 nM
[2]
  Ratio Ki: 47.7
[3]
  Ki: 67 nM
[5]
  Ratio Ki: 5.8
[4]
  Ki: 11.5 nM

## O[C@@H]1Cc2ccccc2C[C@H]1N1CCC(c2ccncc2)CC1 (racemic)
[1]
  Ki: 258 nM
[2]
  Ratio Ki: 13.4
[3]
  Ki: 8.9 nM
[5]
  Ratio Ki: 0.5
[4]
  Ki: 19.3 nM

## O=C(Nc1cccc2c1C[C@@H](N1CCC(c3ccccc3)CC1)[C@H](O)C2)c1ccc(F)cc1 (racemic)
[1]
  Ki: 3620 nM
[2]
  Ratio Ki: 23.2
[3]
  Ki: 6430 nM
[5]
  Ratio Ki: 41.2
[4]
  Ki: 156 nM

## O[C@@H]1CCCC[C@H]1N1CCC(c2ccccc2)(c2ccccc2)CC1 (racemic)
[1]
  Ki: 1830 nM
[2]
  Ratio Ki: 0.3
[3]
  Ki: 43.2 nM
[5]
  Ratio Ki: < 0.1
[4]
  Ki: 6710 nM

## O[C@@H]1CC[C@@H](OCc2ccc(F)cc2)C[C@H]1N1CCC(c2ccncc2)CC1 (racemic)
[1]
  Ki: 85.8 nM
[2]
  Ratio Ki: < 0.1
[3]
  Ki: 26.4 nM
[5]
  Ratio Ki: < 0.1
[4]
  Ki: 1350 nM

## CC(=O)C1(c2ccccc2)CCN([C@@H]2C[C@H](OCc3ccc(F)cc3)CC[C@H]2O)CC1 (racemic)
[1]
  Ki: 18.8 nM
[2]
  Ratio Ki: < 0.1
[3]
  Ki: 63.1 nM
[5]
  Ratio Ki: 0.2
[4]
  Ki: 260 nM

## O[C@@H]1Cc2cccc(OCCF)c2C[C@H]1N1CCC(c2ccccc2)CC1 (racemic)
[5]
  Ratio Ki: 10.7

## O[C@@H]1C[C@@H](OCc2ccc(F)cc2)CC[C@H]1N1CCC(c2ccccc2)CC1 (racemic)
[1]
  Ki: 67.1 nM
[2]
  Ratio Ki: < 0.1
[3]
  Ki: 16.8 nM
[5]
  Ratio Ki: < 0.1
[4]
  Ki: 2390 nM

## CC(=O)C1(c2ccccc2)CCN([C@@H]2CC[C@H](OCc3ccc(F)cc3)C[C@H]2O)CC1 (racemic)
[1]
  Ki: 103 nM
[3]
  Ki: 120 nM
[4]
  Ki: > 10000 nM

## O[C@@H]1Cc2ccccc2C[C@H]1N1CC=C(c2ccccc2)CC1 (racemic)
[1]
  Ki: 166 nM
[3]
  Ki: 24 nM

## O[C@@H]1CCCC[C@H]1N1CCC(c2ccncc2)CC1 (racemic)
[1]
  Ki: 3320 nM
[3]
  Ki: > 1000 nM
[4]
  Ki: 3380 nM

## O=C(Nc1cccc2c1C[C@@H](O)[C@H](N1CCC(Cc3ccccc3)CC1)C2)c1ccc(F)cc1 (racemic)
[1]
  Ki: 2110 nM
[3]
  Ki: 296 nM
[4]
  Ki: > 10000 nM

## O[C@@H]1CCCC[C@H]1N1CCC(c2ccccc2)CC1 (racemic) [VESAMICOL]
[1]
  Ki: 112 nM

## O[C@@H]1C[C@@H](OCc2ccc(F)cc2)CC[C@H]1N1CCC(c2ccncc2)CC1 (racemic)
[1]
  Ki: 164 nM
[3]
  Ki: 41.1 nM
[4]
  Ki: > 10000 nM

## O[C@@H]1C[C@@H](OCc2ccc(F)cc2)CC[C@H]1N1CCC(O)(c2ccccc2)CC1 (racemic)
[1]
  Ki: 254 nM
[3]
  Ki: 31 nM
[4]
  Ki: > 10000 nM
